Data: patent US20130158112A1, “COMPOSITIONS AND METHODS FOR INHIBITING BETA AMYLOID SECRETION” (priority 2011, published 2013)
Values joined by “and” are separate entries in the source; they are usually repeats but may differ in a detail not shown here. Equal values may be shown once.

Key:
α-secretase = test: α-Secretase activity assay in lysates of treated H4βAPP695 wt cells; format: cell-based, human
Experimental: H4βAPP695 wt were treated with vehicle or 1 for 24 h, washed with ice cold PBS, and lysed in extraction buffer provided with the α-secretase assay kit (R&D Systems) for 10 min on ice and centrifuged at 10000 g for 1 min to remove nuclei. Protein content of the supernatant was determined by the BCA assay, and 50 μg of lysate protein were added to wells of a 96-well assay plate and the volume was adjusted to 100 μL using the lysis buffer. 100 μL of reaction buffer and 10 μL of the fluorogenic substrate were added, and the plates were incubated at 37° C. in the dark with gentle agitation for 2 h. Activity was detected in a fluorescence plate reader using an excitation of 355 nm and an emission of 510 nm after subtraction of fluorescence in the absence of cell lysate.
We measured the activity of α-secretase using a fluorogenic peptide substrate in lysates of H4βAPP695 wt cells. […] However, addition of compound 1 directly to the cell lysates, rather than to the live cells, had no effect on α-secretase activity (data not shown), implying an indirect cellular activation of this pathway rather than direct activation of the α-secretase protease by compound 1.

Caco-2 cells = test: Epithelial transcellular transport of drug activity through Caco-2 monolayers; format: in vitro ADME
Experimental: H4βAPP695 wt cells, a human […] cell line stably transfected with a wtβAPP695 expression vector construct under the control of a CMV promoter (kindly provided by Dr. Chris Eckman from Mayo Clinic, Florida) were cultured as previously described. Twenty-four hours before drug treatment, the media was replaced with serum-free media. Cells were then incubated with drugs (dissolved in DMSO) or vehicle for 24 h for collection of conditioned media and cell lysates. For the PKC inhibitors experiment, three inhibitors were treated 30 min prior to drug challenge. Primary cortical neurons were prepared from embryonic day 18 APP and presenilin 1 (APPswe, PSEN1dE9) transgenic mice on the C57BL/6 genetic background (Jackson Laboratories, strain no. 5864) as previously described. THLE-3 human hepatoma cells (from ATCC) were plated in 24-well plates that were precoated with 10 μg/mL bovine serum albumin, 10 μg/mL fibronectin, and 30 μg/mL bovine type I collagen. The cells were grown in BEGM media (Clonetics) until confluent and treated with drugs at 20 μM for 24 h. This conditioned media was harvested, diluted 1:1 in serum-free medium, and incubated with H4βAPP695 wt cells for 24 h prior to analysis of secreted Aβ, which was compared to the effect of 10 μM drug treatments without prior incubation with the THLE-3 cells. Caco-2 cells (ATCC) were plated in 12-well plates with Transwell inserts (Costar) at 70000 cells per well and grown for 21 days. The media volume of the apical and basal chambers was 0.5 and 1.5 mL, respectively. Transepithelial resistance was measured in each well and found to be >160 Ω/cm^2. Drugs at 40 μM and 20 μg/mL of lucifer yellow were added in serum-free medium to the apical chamber. Four hours later, the basal chamber media was harvested and used to measure lucifer yellow fluorescence to confirm monolayer integrity as well as for treatment of H4βAPP695 wt cells for 24 h prior to analysis of secreted Aβ, which was compared to the effect of direct addition of 10 μM of the corresponding drug.
Monolayer integrity was confirmed by high levels of transcellular electrical resistance (>160 ohms/cm^2) and by transcellular impermeability to the fluorescent dye lucifer yellow. […] The concentration of each compound added to the upper chamber would lead to 10 μM in the lower chamber if equilibration was complete, and thus the activity of the lower chamber media was compared to the activity of 10 μM drug added directly to the H4βAPP695 wt cells. […] Compound 1 crossed the monolayer and the bottom chamber media led to a 27% reduction in Aβ production, yielding 38% of the theoretical activity. The compound with the most activity in the lower chamber was compound 48, which decreased Aβ production by 50%, with 71% of its theoretical activity. […] On the basis of the combined activity data from these last two studies, compound 48 was selected as the lead drug for in vivo study.

O=C(NCCSCc1cccc(Cl)c1)c1c(Cl)cccc1Cl [Compound 1]
α-secretase activity after treatment of cells (α-secretase): induced | increase in α-secretase activity (α-secretase; cells pretreated with 10 μM for 24 h): 20% | % theoretical activity (Caco-2 cells; % of activity passing through Caco-2 monolayer): 38% and 38.4% | inhibition at 10 µM (Caco-2 cells; Homo sapiens, Caco-2, 10 μM drug alone added directly to H4βAPP695 wt cells, read-out: transcellular transport No total Aβ (% decrease)): 69.4% | inhibition at up to 10 µM (Caco-2 cells; Homo sapiens, Caco-2, 4 h, lower chamber media after 4 h on Caco-2 monolayer, 10 μM if in equilibrium, read-out: transcellular transport Yes total Aβ (% decrease)): 27%
